From patent US20230278972A1, “SUBSTITUTED HALOALKYL SULFONANILIDE HERBICIDES” (FMC Corporation, priority 2020, published 2023) come the findings set out here.

Holding throughout (assay type): in vivo
Experiment [1] concerns goosegrass (Eleusine indica). The experiment can be described thus: Test A1 preemergence, goosegrass. The method, boiled down: (§1)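 Herbicidal response was scored on plants treated either preemergence, by directed spray onto soil of a loam–sand blend after sowing, or postemergence on potted plants at the one- to two-leaf stage, 2–10 cm high. Test chemicals were carried in a non-phytotoxic solvent mix with surfactant.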

The test system of experiment [2] is Oat, Wild (wild oat, Avena fatua). Put plainly: Test A1 preemergence, Oat, Wild. In short, it runs like this:
as §1

For experiment [3], the system named is ragweed (common ragweed, Ambrosia artemisiifolia). The experiment can be described thus: Test A1 preemergence, ragweed. The method, boiled down: as §1
Experiment [4] deals with wheat (Triticum aestivum). Put plainly: Test A1 preemergence, wheat. The method, boiled down:
as §1

In another experiment the test system is corn (Zea mays). Put plainly: Test A1 postemergence, corn. The conditions noted are these: Postemergence. In short, it runs like this: as §1
For experiment [5], the system named is goosegrass (Eleusine indica). Put plainly: Test A1 postemergence, goosegrass. As to conditions: Postemergence. The method, boiled down:
(§2)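 Plants were grown in a loam soil/sand blend, with test chemicals formulated in a non-phytotoxic solvent mixture containing surfactant. Preemergence treatment (corn) was a directed soil spray at planting. Postemergence treatment was applied to plants 2 to 10 cm tall at the one- to two-leaf stage.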

The test system of the next experiment is kochia (Bassia scoparia). The experiment can be described thus: Test A1 postemergence, kochia. As to conditions: Postemergence. In short, it runs like this: as §2
Experiment [6] has as its system Pigweed, Palmer (palmer amaranth, palmer pigweed, Amaranthus palmeri). Put plainly: Test A1 postemergence, Pigweed, Palmer. As to conditions: Postemergence. The method, boiled down: (§3)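 Pre: seeds in loam/sand blend, directed soil spray. Post: potted plants, same soil, 2–10 cm, 1–2 leaf stage. Chemicals in non-phytotoxic solvent + surfactant for both.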
In experiment [7] the test system is ragweed (common ragweed, Ambrosia artemisiifolia). Put plainly: Test A1 postemergence, ragweed. As to conditions: Postemergence. In short, it runs like this: as §3
A further experiment deals with soybean (Glycine max). The experiment can be described thus: Test A1 postemergence, soybean. The conditions noted are these: Postemergence. In short, it runs like this: as §2
The mark [8] stands for this setting: 31 g ai/ha, 0 to 100 scale (0 no effect, 100 complete control).
[9] abbreviates: 125 g ai/ha, 0 to 100 scale, 0 no effect, 100 complete control.
The mark [10] stands for this setting: 31 g ai/ha, 0 to 100 scale (0 no effect, 100 complete control), 10 days.

In the case of `Cc1cc(C)c(C2=NOC3COCC23)cc1NS(=O)(=O)C(F)(F)F` (centres unmarked) [Compound 297], the “Plant response rating, Goosegrass” value in experiment [1] (setting [8]) was 70; in [1] (setting [9]), 90; in [5] (setting [10]), 0; in experiment [5] (125 g ai/ha, 0 to 100 scale), 70. Moreover, the “Plant response rating, Oat, Wild” value in experiment [2] (setting [8]) amounted to 0; in experiment [2] (setting [9]), 20. In addition, the “Plant response rating, Ragweed” value in experiment [3] (setting [8]) is 20; in [3] (setting [9]), 60; in [7] (setting [10]), 30; in experiment [7] (125 g ai/ha, 0 to 100 scale), 70. Moreover, the entries for the “Plant response rating, Wheat” value in experiment [4] (setting [8]) and in [4] (setting [9]) were 20 and 100, respectively. Also, the “Plant response rating, Corn” value is 0 with corn (Zea mays) (setting [10]) and 0 with corn (Zea mays) (125 g ai/ha, 0 to 100 scale). In addition, the “Plant response rating, Kochia” value was determined as 0 with kochia (Bassia scoparia) (setting [10]) and 60 in the experiment with kochia (Bassia scoparia) (125 g ai/ha, 0 to 100 scale). In addition, the “Plant response rating, Pigweed, Palmer” value in experiment [6] (setting [10]) turned out to be 10; in [6] (125 g ai/ha, 0 to 100 scale), 20. The “Plant response rating, Soybean” value in the experiment with soybean (Glycine max) (setting [10]) turned out to be 30; in the experiment with soybean (Glycine max) (125 g ai/ha, 0 to 100 scale) it was 50.

As to `Cc1cc(C)c(N(C(=O)OCC(C)C)S(=O)(=O)C(F)(F)F)cc1C1=NOC2CCCC12` (centres unmarked) [Compound 299], the “Plant response rating, Goosegrass” value worked out at 60 in experiment [1] (setting [8]); 90 in experiment [1] (setting [9]); 30 in experiment [5] (setting [10]); 40 in experiment [5] (125 g ai/ha, 0 to 100 scale). Moreover, the entries for the “Plant response rating, Oat, Wild” value in [2] (setting [8]) and in experiment [2] (setting [9]) were 0 and 20, respectively. Besides, the “Plant response rating, Ragweed” value in experiment [3] (setting [8]) was found to be 0; in experiment [3] (setting [9]) it was 30; in experiment [7] (setting [10]), 40; in experiment [7] (125 g ai/ha, 0 to 100 scale), 70. Further, the “Plant response rating, Wheat” value is 0 in experiment [4] (setting [8]) and 70 in experiment [4] (setting [9]). Further, the “Plant response rating, Corn” value in the experiment on corn (Zea mays) (setting [10]) stood at 0; in the experiment on corn (Zea mays) (125 g ai/ha, 0 to 100 scale), 0. Further, the “Plant response rating, Kochia” value with kochia (Bassia scoparia) (setting [10]) was 0; in the experiment with kochia (Bassia scoparia) (125 g ai/ha, 0 to 100 scale) it was 20. Besides, the “Plant response rating, Pigweed, Palmer” value in experiment [6] (setting [10]) was determined as 10; in [6] (125 g ai/ha, 0 to 100 scale) it was 10. Besides, the “Plant response rating, Soybean” value turned out to be 40 in the experiment with soybean (Glycine max) (setting [10]) and 50 with soybean (Glycine max) (125 g ai/ha, 0 to 100 scale).

Regarding `Cc1cc(C)c(N(COC(=O)C(C)(C)C)S(=O)(=O)C(F)(F)F)cc1C1=NOC2COCC12` (centres unmarked) [Compound 301], the “Plant response rating, Goosegrass” value amounted to 80 in [1] (setting [8]); 100 in [1] (setting [9]); 0 in experiment [5] (setting [10]); 60 in experiment [5] (125 g ai/ha, 0 to 100 scale). Further, the “Plant response rating, Oat, Wild” value in experiment [2] (setting [8]) and in [2] (setting [9]) was 0 each time. The “Plant response rating, Ragweed” value stood at 0 in [3] (setting [8]); 80 in experiment [3] (setting [9]); 60 in experiment [7] (setting [10]); 70 in experiment [7] (125 g ai/ha, 0 to 100 scale). Also, the “Plant response rating, Wheat” value worked out at 0 in experiment [4] (setting [8]) and 40 in experiment [4] (setting [9]). Further, the “Plant response rating, Corn” value in the experiment with corn (Zea mays) (setting [10]) was determined as 0; with corn (Zea mays) (125 g ai/ha, 0 to 100 scale), 30. Besides, the “Plant response rating, Kochia” value is reported as 0 with kochia (Bassia scoparia) (setting [10]) and 30 in the experiment with kochia (Bassia scoparia) (125 g ai/ha, 0 to 100 scale). The “Plant response rating, Pigweed, Palmer” value in [6] (setting [10]) worked out at 0; in experiment [6] (125 g ai/ha, 0 to 100 scale), 30. Further, the “Plant response rating, Soybean” value worked out at 10 with soybean (Glycine max) (setting [10]) and 40 with soybean (Glycine max) (125 g ai/ha, 0 to 100 scale).

Take `Cc1cc(Br)c(C2=NOC3CCCC23)cc1NS(=O)(=O)C(F)(F)F` (centres unmarked) [Compound 302]: the “Plant response rating, Goosegrass” value in [1] (setting [8]) stood at 0; in experiment [1] (setting [9]), 90; in experiment [5] (setting [10]), 0; in [5] (125 g ai/ha, 0 to 100 scale), 10. For the same molecule, the “Plant response rating, Oat, Wild” value turned out to be 0 in experiment [2] (setting [8]) and 20 in experiment [2] (setting [9]). Also, the “Plant response rating, Ragweed” value was found to be 0 in experiment [3] (setting [8]); 30 in [3] (setting [9]); 30 in [7] (setting [10]); 70 in [7] (125 g ai/ha, 0 to 100 scale). For the same molecule, the “Plant response rating, Wheat” value in experiment [4] (setting [8]) is 0; in experiment [4] (setting [9]), 20. The “Plant response rating, Corn” value in the experiment with corn (Zea mays) (setting [10]) is 0; with corn (Zea mays) (125 g ai/ha, 0 to 100 scale) it was 0. For the same molecule, the “Plant response rating, Kochia” value in the experiment with kochia (Bassia scoparia) (setting [10]) turned out to be 10; in the experiment on kochia (Bassia scoparia) (125 g ai/ha, 0 to 100 scale), 50. Moreover, the “Plant response rating, Pigweed, Palmer” value in experiment [6] (setting [10]) turned out to be 10; in [6] (125 g ai/ha, 0 to 100 scale), 40. Moreover, the “Plant response rating, Soybean” value in the experiment with soybean (Glycine max) (setting [10]) came out at 20; with soybean (Glycine max) (125 g ai/ha, 0 to 100 scale), 40.
